Results as given in patent US9108930B2, “N1- and N2-carbamoyl-1,2,3-triazole serine hydrolase inhibitors and methods” (The Scripps Research Institute, priority 2011, dated 2015).
Entries after “also recorded” stand apart in the source; their conditions may differ.

What was measured:
DAGLA = molecular target: T1, DAGLA (Mus musculus, UniProt Q6WQJ1); experiment: Activity against recombinant DAGLA; format: biochemical
T1 construct: Full-length cDNAs encoding serine hydrolases were purchased from Open Biosystems; V5; host or cells: HEK293T
T1 sequence (Q6WQJ1 whole entry): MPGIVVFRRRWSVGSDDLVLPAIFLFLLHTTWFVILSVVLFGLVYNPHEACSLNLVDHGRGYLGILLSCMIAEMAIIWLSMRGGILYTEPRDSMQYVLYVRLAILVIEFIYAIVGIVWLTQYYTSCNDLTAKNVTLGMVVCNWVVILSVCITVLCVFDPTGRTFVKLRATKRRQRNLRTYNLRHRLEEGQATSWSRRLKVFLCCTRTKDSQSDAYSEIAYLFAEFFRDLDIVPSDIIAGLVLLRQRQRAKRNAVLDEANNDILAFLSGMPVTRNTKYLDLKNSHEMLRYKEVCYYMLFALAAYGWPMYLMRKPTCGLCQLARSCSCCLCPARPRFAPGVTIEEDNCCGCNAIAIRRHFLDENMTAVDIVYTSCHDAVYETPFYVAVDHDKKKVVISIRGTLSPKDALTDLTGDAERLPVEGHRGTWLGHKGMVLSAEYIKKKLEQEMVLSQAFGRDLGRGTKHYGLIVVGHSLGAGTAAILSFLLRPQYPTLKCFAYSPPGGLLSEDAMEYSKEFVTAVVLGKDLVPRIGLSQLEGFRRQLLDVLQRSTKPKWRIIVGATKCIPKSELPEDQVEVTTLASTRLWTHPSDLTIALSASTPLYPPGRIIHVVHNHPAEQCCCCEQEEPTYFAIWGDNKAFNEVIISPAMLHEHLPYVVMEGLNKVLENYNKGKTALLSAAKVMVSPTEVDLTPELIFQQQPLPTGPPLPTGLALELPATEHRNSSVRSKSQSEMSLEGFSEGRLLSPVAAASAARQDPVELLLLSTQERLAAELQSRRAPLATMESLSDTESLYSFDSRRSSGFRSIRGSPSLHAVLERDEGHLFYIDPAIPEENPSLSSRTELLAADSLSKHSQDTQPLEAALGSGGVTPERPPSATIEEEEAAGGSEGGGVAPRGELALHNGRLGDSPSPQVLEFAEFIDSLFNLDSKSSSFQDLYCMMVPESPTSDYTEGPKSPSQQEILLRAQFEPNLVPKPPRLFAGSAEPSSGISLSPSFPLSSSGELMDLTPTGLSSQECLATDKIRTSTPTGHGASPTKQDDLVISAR

[1] = system: serine hydrolases in the peritoneal macrophage proteome; experiment: ABPP-MudPIT of peritoneal macrophages from treated mice, off-targets; conditions: mouse, in vivo
peritoneal macrophages = experiment: Metabolomics of thioglycolate-elicited peritoneal macrophages from treated mice; format: in vivo, mouse; conditions: 5 mg/kg, 4 hours, i.p.
Method: Mice were treated with KT109, KT172 or KT195 (5 mg/kg, 4 hours, i.p.) to evaluate whether blockade of DAGLB in peritoneal macrophages would result in metabolic effects similar to those observed in Neuro2A cells. Thioglycolate-elicited peritoneal macrophages were harvested, and the cells were subjected to metabolomics studies. […] All the metabolic effects observed in pharmacological studies were recapitulated using Daglb^−/− mice, providing genetic evidence that the changes were indeed DAGLB-mediated.
Metabolites were quantified by either selected reaction monitoring (SRM) of each metabolite using an Agilent G6410B Triple-Quad instrument or untargeted metabolomic analysis (substrate assays) using an Agilent 1100 series LC-MSD SL instrument. […] For analysis of diacylglycerols (DAGs) a Luna C5 column (50 mm×4.60 mm with 5 μm diameter particles) from Phenomenex was used. Mobile phase A was made of 95:5 v/v H2O:MeOH, and mobile phase B was composed of 60:35:5 v/v/v i-PrOH:MeOH:H2O. Ammonium hydroxide (0.1%) and formic acid (0.1%) was included to assist in ion formation in negative and positive ionization modes, respectively. For analysis of DAGs, 5 mM ammonium formate was also used in addition to 0.1% formic acid to assist in positive ionization and NH4+ adduct formation. For metabolite measurements, cells were resuspended in 1 mL of a 1% NaCl solution and added to 3 mL of a 2:1 v/v CHCl3:MeOH doped with 1 nmol of the following internal standards: d5-2-arachidonoylglycerol (2-AG), d8-arachidonic acid (AA), and d8-1-stearoyl-2-arachidonoylglycerol (SAG). The mixture was vortexed and then centrifuged (1,400×g, 3 min). The organic layer was removed, CHCl3 was added until the final volume was again 4 ml, and the extraction was repeated. The combined organic extracts were dried under a stream of N2 and resolubilized in 2:1 v/v CHCl3:MeOH (120 μl). 30 μL of resolubilized lipids were injected for positive mode (MAGs and DAGs) and negative mode (free fatty acids and eicosanoids) measurements.
The following parameters (MS) were used to measure the indicated metabolites by SRM (precursor ion, product ion, collision energy in V, polarity): C20:4 MAG or 2-AG (379, 287, 8, positive), d5-2-AG (384, 287, 5, positive), C18:0/C20:4 DAG or SAG (662, 341, 15, positive), d8-SAG (671, 671, 0, positive), C18:1/C20:4 DAG (660, 341, 15, positive), C16:0/C20:4 DAG (634, 341, 15, positive), C14:0/C20:4 DAG (606, 341, 15, positive), arachidonic acid or AA (303, 303, 0, negative), d8-AA (311, 267, 5, negative), PGE2 (351, 271, 10, negative), and PGD2 (351, 271, 10, negative). MS analysis was performed with an electrospray ionization source with the following parameters: drying gas temperature=350° C., drying gas flow rate=11 L/min, and the nebulizer pressure=35 psi. Prostaglandin SRM parameters were based on previously reported methods and transitions. Metabolites targeted by SRM were quantified by measuring the area under the peak in comparison with the internal standards. For metabolites where isotopic internal standards were not used, external standard curves with the internal standard versus metabolite standard were generated. In DAGL substrate assays, formation of the hydrolysis product, 2-AG was followed by measuring the area under the peak for 2-AG in comparison to the 1-monopentadecanoin standard ion.

DAGLB [2] = molecular target: T2, DAGLB (Mus musculus, UniProt Q91WC9); experiment: Gel-based ABPP assay against recombinant DAGLB (HEK293T-DAGLB lysates); format: biochemical; parameters: Full-length cDNAs encoding serine hydrolases were purchased from Open Biosystems; V5; host or cells: HEK293T; conditions: recombinant
T2 sequence (Q91WC9 1-669): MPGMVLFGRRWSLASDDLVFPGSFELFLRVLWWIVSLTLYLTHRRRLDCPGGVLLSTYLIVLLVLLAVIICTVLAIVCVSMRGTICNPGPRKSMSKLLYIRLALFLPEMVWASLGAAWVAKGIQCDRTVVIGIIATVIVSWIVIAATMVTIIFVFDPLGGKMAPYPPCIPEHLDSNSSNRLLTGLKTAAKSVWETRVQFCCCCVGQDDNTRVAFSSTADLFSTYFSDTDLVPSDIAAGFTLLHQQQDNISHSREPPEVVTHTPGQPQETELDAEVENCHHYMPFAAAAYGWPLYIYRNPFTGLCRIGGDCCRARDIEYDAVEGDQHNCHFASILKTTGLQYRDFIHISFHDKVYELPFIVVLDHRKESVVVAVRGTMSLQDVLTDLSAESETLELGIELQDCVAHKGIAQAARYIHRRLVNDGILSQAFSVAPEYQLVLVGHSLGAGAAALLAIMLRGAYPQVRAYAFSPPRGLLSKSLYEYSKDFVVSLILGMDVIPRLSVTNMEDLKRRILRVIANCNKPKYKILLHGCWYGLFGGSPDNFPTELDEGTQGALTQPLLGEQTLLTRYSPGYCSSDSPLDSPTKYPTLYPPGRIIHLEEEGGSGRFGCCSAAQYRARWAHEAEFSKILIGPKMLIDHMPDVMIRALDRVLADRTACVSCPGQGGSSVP

DAGLB [3] = molecular target: T2, DAGLB; experiment: In situ inhibition in Neuro2A cells, competitive ABPP with HT-01; format: cell-based; parameters: from tissue; host or cells: thioglycolate-elicited peritoneal macrophages of treated mice; conditions: 4 hours
Method: For gel-based competitive ABPP studies, proteomes from cells treated in situ with inhibitor for 4 h at 37° C. at the indicated concentrations (n=3) were labeled with HT-01 (1 μM) for 30 min at 37° C. After quenching, SDS-PAGE, and in-gel visualization, the percentage of enzyme activity remaining was determined by measuring the integrated optical intensity of the bands using IMAGER® software. For LC-MS substrate assays, the percentage of enzyme activity remaining was determined by comparing the specific activity (amount of 2-AG formed per min per mg of proteome) of inhibitor with DMSO-treated samples. The IC50 values were determined from a dose-response curve generated using GraphPad PRISM® software.

DAGLB [4] = molecular target: T2, DAGLB; experiment: ABPP-SILAC in Neuro2A cells; conditions: about 4 hours; 25 nM KT172, 50 nM KT109
DAGLB [5] = molecular target: T2, DAGLB; experiment: ABPP-MudPIT of peritoneal macrophages from treated mice; conditions: in vivo
[6] = system: serine hydrolases in mouse brain proteome; experiment: Selectivity profile by competitive ABPP (mouse brain proteome), DAGL series; format: biochemical
DAGLB [7] = molecular target: T2, DAGLB; experiment: In vivo DAGLB inactivation in peritoneal macrophages, gel-based competitive ABPP using HT01; parameters: from tissue; host or cells: thioglycolate-elicited peritoneal macrophages of treated mice; conditions: i.p.
endogenous DAGLB = molecular target: T3, endogenous DAGLB (Mus musculus, UniProt Q91WC9); experiment: HT01 labeling of endogenous DAGLB in mouse brain and peritoneal macrophage proteomes; format: biochemical; conditions: 2 μM pretreatment
T3 construct: from tissue; host or cells: mouse brain and peritoneal macrophages

SMILES: COc1ccccc1-c1ccc(-c2cn(C(=O)N3CCCCC3Cc3ccccc3)nn2)cc1 (centres unmarked) [KT172]
- activity against DAGLA (DAGLA): more potent against the alpha isoform in comparison with KT109
- off-target activities [1]: carboxylesterases (Ces3 and Ces2g)
- change in 2-AG (peritoneal macrophages): Dramatic decreases in 2-AG
- change in SAG (peritoneal macrophages): significant increases in SAG
- change in cellular AA, PGE2 and PGD2 (peritoneal macrophages): significant decreases in cellular AA levels and a corresponding reduction in PGE2 and PGD2
- activity against DAGLB (DAGLB [2]): maintaining potency against DAGLB
- IC50 (DAGLB [3]): 11 nM
- DAGLB activity blocked (DAGLB [4]): approximately 90%
- DAGLB inhibition by spectral counting (DAGLB [5]): confirmed inhibition of DAGLB
- off-target activity / selectivity against other serine hydrolases [6]: mild activity against this off-target enzyme at higher concentrations; also recorded: slightly increased activity against MGLL
- time to complete inhibition of DAGLB (DAGLB [7]; 5 mg/kg): within the first hour
- duration / time-course of DAGLB inhibition (DAGLB [7]; 5 mg/kg, about 1 to 16 hours): shorter compared with KT109
- dose (as low as) giving complete inactivation of DAGLB in peritoneal macrophages (DAGLB [7]; about 4 hours, doses about 10 to about 0.1 mg/kg): 0.5 mg/kg
- reduction of HT01 probe labeling of the DAGLB band (endogenous DAGLB): > 80%
